Activity calls are given as the source filed them.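 How the source made its calls: active means phosphorylated Mpk1, a fungal stress kinase, cut by at least 20% below its untreated level on western blot; inactive means the rest.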

The test system of the assay is Mitogen-activated protein kinase MPK1 phosphorylation (Cryptococcus neoformans H99). Description: inhibition of Mpk1 phosphorylation in C. neoformans, mechanism study for C. neoformans antifungal project, cell-based, single point, dry powder, imaging (AID 743392). Particulars: C. neoformans H99, pMpk1 Western blot, 2 h; hits give high values; concentration not given here.
Consider `Cc1cccc(OCCn2c(=S)[nH]c3c(F)cccc32)c1`, for which the inhibition (as a rule, the share of the control response that was lost under treatment) is 4% (inactive).

In the case of `S=c1[nH]c2ccccc2n1CCOc1ccccc1Cl`, the inhibition is 56%.

As to `Cc1ccc(C(C)C)c(OCCn2c(=S)[nH]c3ccccc32)c1`, the inhibition is 53%.

As for `Fc1cccc(OCCn2c(=S)[nH]c3ccccc32)c1`, the inhibition is 52%.

As to `CC(C)c1ccc(OCCn2c(=S)[nH]c3ccccc32)cc1`, the inhibition is 62%.
